According to patent US20100210596A1, “USE OF AMINOPYRIMIDINE COMPOUNDS IN THE TREATMENT OF IMMUNE DISORDERS” (priority 2006, published 2010):

Key:
NOD mice [1] = test: Gleevec prevention studies in pre-diabetic NOD mice (diabetes incidence by blood glucose); type: in vivo, mouse
Experimental: (§1) Further studies were carried out to determine if Gleevec could be discontinued and maintain its efficacy. New onset mice were treated as above for only 3 weeks after onset and examined for disease recurrence (FIG. 1B). […] of mice (7/8) went into remission during the 3 weeks of therapy. For the majority of mice, remission was short lived as 5/8 mice (FIG. 1B, solid circles) became hyperglycemic within 1-2 weeks after cessation of drug therapy. However, 3/8 mice (FIG. 1B, open circles) remained in remission more than 6 weeks after the last dose of Gleevec. […] Ten week old NOD mice were treated daily with Gleevec ([…]) or peanut oil and followed for disease incidence. None of the Gleevec-treated and 50% of the peanut oil-treated mice were diabetic at 18 weeks of age.
Pre-diabetic NOD mice were treated with Gleevec for 7 weeks starting at 12 weeks of age. The Gleevec was emulsified in peanut oil and given by gavage (100 mg/kg) daily. Control animals were treated with peanut oil alone. Mice were tested for diabetes based on blood glucose. Mice with two consecutive glucose readings of greater than 250 mg/dl were considered diabetic.

NOD mice [2] = test: Treatment of new onset diabetic NOD mice with Gleevec (remission of diabetes, blood glucose); type: in vivo, mouse
Experimental: NOD mice were treated by gavage (oral) daily (M-F) with 50 mg/kg of commercially-available Gleevec suspended in peanut oil. Treatment was initiated at the time of disease onset (blood sugars above 250 mg/dl) and continued for the duration of the experiment.
as §1
Diabetic NOD mice (250-350 mg/dL) were treated with Gleevec for a short course (3 weeks) or longer courses (8-10 weeks) daily 3 times per week (3×/wk); and blood glucose assessed as described in Example 2. […] The majority of the daily, 8-10 week-treated group remained normal glycemic for >2 months after ending therapy. Peanut oil treatment had no effect in reversing diabetes.
In another dosing regimen, NOD mice were treated with Gleevec (100 mg/kg) by daily oral gavage Monday through Friday for 2 weeks, followed by daily Gleevec (100 mg/kg) via oral gavage three times per week for 6 weeks. Four of 5 mice went into disease remission.

[3] = test system: NOD mice injected with cyclophosphamide (CY); test: Cyclophosphamide model: diabetes incidence in CY-injected NOD mice; type: in vivo; conditions: 14.5 week-old NOD mice, CY 300 mg/kg i.p., Gleevec 1.5 mg/mouse/day oral for 7 weeks; FIG. 3
Experimental: 14.5 week-old NOD mice were injected intraperitoneally (i.p.) with cyclophosphamide (CY) (300 mg/kg) in conjunction with daily oral Gleevec therapy or control peanut oil. Gleevec treatment (1.5 mg/mouse/day) lasted 7 weeks. Mice were tested for diabetes based on blood glucose. Mice with two consecutive glucose readings of greater than 250 mg/dl were considered diabetic.

[4] = 100 mg/kg oral gavage daily Monday-Friday for 2 weeks, then 100 mg/kg three times per week for 6 weeks
[5] = new onset mice, 50 mg/kg oral daily for only 3 weeks after onset, FIG. 1B

SMILES: CS(=O)(=O)O.Cc1ccc(NC(=O)c2ccc(CN3CCN(C)CC3)cc2)cc1Nc1nccc(-c2cccnc2)n1 [Gleevec]
- percent of mice in which diabetes was prevented (NOD mice [1]; pre-diabetic NOD mice, 100 mg/kg gavage daily for 7 weeks starting at 12 weeks of age, diabetic = two consecutive glucose readings >250 mg/dl, FIG. 2): 90%
- mice diabetic at 18 weeks of age (NOD mice [1]; ten week old NOD mice treated daily (50 mg/ml as printed), preliminary experiments): None
- mice going into remission (NOD mice [2]; 50 mg/kg oral gavage daily (M-F) in peanut oil, started at disease onset (blood sugars above 250 mg/dl), continued for duration of experiment, FIG. 1A): All of the treated mice went into remission
- relapse during the course of the study (NOD mice [2]; 50 mg/kg oral gavage daily (M-F), continuous treatment from onset, FIG. 1A): none relapsed
- mice that maintained normoglycemia for the duration of the experiment (>30 weeks after onset) (NOD mice [2]; [4]): Three of the 5
- mice that went into disease remission (number of total) (NOD mice [2]; [4]): Four of 5
- mice that remained in remission more than 6 weeks after the last dose (number/total) (NOD mice [2]; 3-week treatment, FIG. 1B open circles): 3/8
- mice that became hyperglycemic within 1-2 weeks after cessation of drug therapy (number/total) (NOD mice [2]; 3-week treatment, FIG. 1B solid circles): 5/8
- blood glucose levels maintained in treated mice (NOD mice [2]; NOD mice treated with Gleevec after onset): approximately 200 mg/dl
- time the majority of the group remained normal glycemic after ending therapy (NOD mice [2]; daily, 8-10 week-treated group): > 2 months
- reversal of diabetes (NOD mice [2]; diabetic NOD mice (250-350 mg/dL), all treatments: 3 weeks or 8-10 weeks, daily or 3x/wk): effective in reversing diabetes in the majority of mice
- mice that went into remission during the 3 weeks of therapy (number/total) (NOD mice [2]; [5]): 7/8
- percent of mice that went into remission during the 3 weeks of therapy (NOD mice [2]; [5]): Greater than 90%
- long term maintenance (>20 week) of normoglycemia (NOD mice [2]; short course 3 weeks versus long course 8-10 weeks): less evident in short term 3 week treatment) than long term 8-10 week treated mice
- incidence of diabetes versus peanut oil-treated CY-treated control [3]: significantly reduced
